# Measured values taken from patent US20130101680A1, “RADIOTHERAPY ENHANCER” (priority 2006, published 2013).
# Assays:
# [1] = system: human pancreatic cancer strain PAN-4; assay: Tumor growth inhibition by S-1, 5-FU or gemcitabine and X-ray, human pancreatic cancer strain PAN-4 in nude mice (Test Example 3); format: in vivo, human (in BALB/cA-nu mouse); settings: for radiotherapy enhancing effect (combination with X-ray), in words: combination with X-ray 2 Gy, PAN-4
# Description: (b) Preparation of test solution II: 5-fluorouracil (5-FU: Wako Pure Chemical Industries, Ltd.) was dissolved in physiological saline at a concentration of 1.5 mg/mL and sterilized by filtration with a 0.45-micron Millipore filter to obtain a drug solution of 15 mg/kg as 5-FU.
# (c) Preparation of test solution 3: Gemcitabine (2′-difluoro-2′,3′-dideoxycytidine: Sigma) was dissolved in physiological saline at a concentration of 5 mg/mL and sterilized by filtration with a 0.45-micron Millipore filter to obtain a drug solution of 50 mg/kg as gemcitabine.
# (d) Radiation (X-ray) irradiation method: Local irradiation was performed on a human tumor strain transplanted into the right femoral region of the mouse using MBR-1505R Type 2 X-ray Irradiation System of Hitachi Medical Corporation under an irradiation condition (irradiation position) so that exposure per mouse should be 2 Gy or 5 Gy. To prevent systemic irradiation, mice were placed in a storage box made of lead so that only their right leg should be exposed to radiation.
# (e) Test: The human pancreatic cancer strain (PAN-4) subcutaneously transplanted into the back of a BALB/cA-nu mouse and grown beforehand was removed, cut into small fragments of about 2×2 mm^2 with scissors in physiological saline, and subcutaneously transplanted into the right femoral region of 5 or 6-week-old mice of the same strain with a transplantation needle. The mice were prebred for at least 1 to 2 weeks and divided into the control group, the radiation alone group, the drug alone group, and the drug plus radiation group, so that the tumor volume and standard deviation (S.D.) in each group (n=6 per group) should be as uniform as possible. Then, drug administration and X-ray irradiation were initiated. […] For 5-FU and gemcitabine, the drug treatment group was administered intravenously with 0.1 mL of the above-described 5-FU and gemcitabine drug solutions per body weight 10 g using a syringe for intravenous infusion on days 1 and 8. The radiation group was irradiated with 2 Gy or 5 Gy of X-ray in the above-described manner within about 1 hour after administration of each drug solution on day 1, at the start of the test, and on day 8. Tumor-bearing mice in the control group (non-radiation/non-drug treatment group) and the radiation alone group were orally administered with 0.5% HPMC solution alone in the same manner for 14 consecutive days.
# By using the above-mentioned numerical formula 1, the tumor volume of each mouse in each group was obtained prior to the start of treatment experiment, on days 3, 5, 8 (1 week later) and 11 during the treatment period, and days 15 (2 weeks later), 18, 22 (3 weeks later), 25, and 29 (4 weeks later) after completion of treatment. For the PAN-4 strain, a relative tumor volume (RTV) to the tumor volume at the start was obtained. The mean tumor growth inhibition rate (%) in each treatment group based on the control group was obtained by using the above-mentioned numerical formula 2 on days 15, at the end of the treatment period, 22, and 29 and shown in Table 4.
# [2] = BALB/cA-nu, mouse, in vivo, iv
# [3] = system: human lung cancer LC-11 strain; assay: X-ray irradiation enhancing effect of cisplatin, human lung cancer LC-11 strain in nude mice (Comparative Example 1); format: in vivo, human (in BALB/cA-nu mouse)
# Description: (a) Preparation of test solution I: The cisplatin solution (0.5 mg/mL) available from Bristol-Myers Squibb Company was used as it was. 0.1 mL per mouse body weight 10 g was administered for the dose of cisplatin 5 mg/kg, and […] per mouse body weight 10 g was administered for the dose of 7.5 mg/kg.
# (b) Radiation (X-ray) irradiation method: Local irradiation was performed on a human tumor strain transplanted into the right femoral region of the mouse using MBR-1505R Type 2 X-ray Irradiation System of Hitachi Medical Corporation under an irradiation condition (irradiation position) so that exposure per mouse should be 2 Gy or 5 Gy. To prevent systemic irradiation, mice were placed in a storage box made of lead so that only their right leg should be exposed to radiation.
# (c) Test: The human lung cancer LC-11 strain subcutaneously transplanted into the back of a BALB/cA-nu mouse and grown beforehand were removed, cut into small fragments of about 2×2 mm^2 with scissors in physiological saline, and subcutaneously transplanted into the right femoral region of 5 to 6-week-old mice of the same strain with a transplantation needle. The mice were bred for at least 1 to 2 weeks and divided into the control group, the radiation alone group, the drug alone group, and the drug plus radiation group, so that the tumor volume and standard deviation (S.D.) in each group (n=6 per group) should be as uniform as possible. Then, drug administration and X-ray irradiation were initiated. For the drug treatment group, 0.1 mL per body weight 10 g of a cisplatin solution for the dose of 5 mg/kg or […] per body weight 10 g of this solution for the dose of 7.5 mg/kg was administered into the caudal vein on day 1. The radiation group was irradiated with 2 Gy of X-ray in the above-described manner on day 1, at the start of the test, and on day 8. For tumor-bearing mice in the control group (non-radiation/non-drug treatment group) and the radiation alone group, physiological saline was administered into the caudal vein on day 1.
# By using the above-mentioned numerical formula 1, the tumor volume of each mouse in each group was obtained prior to the start of treatment experiment, on days 3, 5, 8 (1 week later) and 11 during the treatment period, and days 15 (2 weeks later), 18, 22 (3 weeks later), 25, and 29 (4 weeks later) after completion of treatment. A relative tumor volume (RTV) to the tumor volume at the start of the test was obtained for each mouse. Then, the mean tumor growth inhibition rate (IR; %) in each treatment group based on the control group was obtained by using the above-mentioned numerical formula 2 on day 15, at the end of the treatment period, and on day 29, at 4 weeks later, and shown in Table 3.
# [4] = No-observed adverse effect level / maximum nontoxic dose in mice; settings: as 5-FU; PAN-4 tumor-transplanted mouse, intravenous on days 1 and 8
# [5] = Gemcitabine 50 mg/kg i.v. days 1 and 8 + X-ray 2 Gy
# [6] = Gemcitabine 50 mg/kg i.v. days 1 and 8, alone
# [7] = CDDP 5.0 mg/kg i.v. day 1 + X-ray 2 Gy
# [8] = CDDP 5.0 mg/kg i.v. day 1, alone
# [9] = CDDP 7.5 mg/kg i.v. day 1 + X-ray 2 Gy
# [10] = CDDP 7.5 mg/kg i.v. day 1, alone
# [11] = 5-FU 15 mg/kg i.v. days 1 and 8 + X-ray 2 Gy
# [12] = 5-FU 15 mg/kg i.v. days 1 and 8, alone
structure (smiles),measurement,setting,value
Nc1ccn([C@@H]2O[C@H](CO)[C@@H](O)C2(F)F)c(=O)n1 [Gemcitabine],Tumor growth inhibition rate (IR) (%) Day 15,[1]; [5],40.0%
same,Tumor growth inhibition rate (IR) (%) Day 15,"[1]; Gemcitabine 50 mg/kg i.v. days 1 and 8 + X-ray 2 Gy, listed as gemcitabine",40%
same,Tumor growth inhibition rate (IR) (%) Day 22,[1]; [5],62.3%
same,Tumor growth inhibition rate (IR) (%) Day 29,[1]; [5],63.9%
same,Tumor growth inhibition rate (IR) (%) Day 15,[1]; [6],39.8%
same,Tumor growth inhibition rate (IR) (%) Day 22,[1]; [6],51.1%
same,Tumor growth inhibition rate (IR) (%) Day 29,[1]; [6],51.1%
same,"radiotherapy enhancing effect (combination with X-ray), in words",[1],did not show a strong effect of the combination use
same,no-observed adverse effect level,[2],50 mg/kg
N.N.[Cl][Pt][Cl] [cisplatin],IR (%) Day 15,[3]; [7],53.8%
same,IR (%) Day 29,[3]; [7],46.8%
same,IR (%) Day 15,[3]; [8],39.9%
same,IR (%) Day 29,[3]; [8],45.6%
same,IR (%) Day 15,[3]; [9],54.6%
same,IR (%) Day 29,[3]; [9],66.8%
same,IR (%) Day 15,[3]; [10],55.8%
same,IR (%) Day 29,[3]; [10],60.2%
same,"radiotherapy enhancing effect (combination with X-ray), in words","[3]; cisplatin 5 mg/kg or 7.5 mg/kg with X-ray 2 Gy, LC-11",did not notably enhance antitumor effects compared with treatment with cisplatin alone
"O=c1[nH]cc(F)c(=O)[nH]1 [5-FU, 5-fluorouracil]",maximum nontoxic dose,[4],15 mg/kg
same,Tumor growth inhibition rate (IR) (%) Day 15,[1]; [11],15.8%
same,Tumor growth inhibition rate (IR) (%) Day 22,[1]; [11],27.5%
same,Tumor growth inhibition rate (IR) (%) Day 29,[1]; [11],36.9%
same,Tumor growth inhibition rate (IR) (%) Day 15,[1]; [12],12.4%
same,Tumor growth inhibition rate (IR) (%) Day 22,[1]; [12],16.8%
same,Tumor growth inhibition rate (IR) (%) Day 29,[1]; [12],29.2%
same,"radiotherapy enhancing effect (combination with X-ray), in words",[1],did not show marked effect of the combination use
